From patent US6514997B2, “Antipicornaviral compounds and compositions, their pharmaceutical uses, and materials for their synthesis” (Agouron Pharmaceuticals, Inc., priority 1999, dated 2003)
Read-outs that look alike come from different tables or passages of the source. Values belong to the compound of their own block, whether it stands above or below them.

How the values were obtained:
HRV-14 = assay: Antirhinoviral H1-HeLa cell culture assay (XTT cell protection, EC50), HRV-14; type: cell-based, human rhinovirus (HRV) serotype-14 in H1-HeLa cells
Experimental: (§1) Antirhinoviral H1-HeLa Cell Culture Assay:
(§2) In this cell protection assay, the ability of compounds to protect cells against HRV infection was measured by the XTT dye reduction method, which is described in Weislow et al., J. Natl. Cancer Inst. […] H1-HeLa cells were infected with HRV-14 at a multiplicity of infection (m.o.i.) of 0.13 (virus particles/cell) or mock-infected with medium only. Infected or mock-infected cells were resuspended at 8×10^5 cells per mL, and incubated with appropriate concentrations of the compounds to be tested. Two days later, XTT/PMS was added to test plates and the amount of formazan produced was quantified spectrophotometrically at 450/650 nm. […] The therapeutic index (TI) was calculated by dividing the CC50 value by the EC50 value.
(§3) All strains of human rhinovirus (HRV) for use in this assay were purchased from American Type Culture Collection (ATCC), except for HRV serotype-14 (produced from the infectious cDNA clone constructed by Dr. Robert Rueckert, Institute for Molecular Virology, University of Wisconsin, Madison, Wis.). HRV stocks were propagated and viral assays were performed in H1-HeLa cells (ATCC). Cells were grown in minimal essential medium with 10% fetal bovine serum, available from Life Technologies (Gaithersburg, Md.).

H1-HeLa cells = assay: Cytotoxicity (CC50) in mock-infected H1-HeLa cells, XTT dye reduction; type: cell-based, human
Experimental: as §2, §3
(§4) Coxsackievirus types A-21 (CAV-21) and B3 (CVB3) were purchased from American Type Culture Collection (ATCC, Rockville, Md.). Virus stocks were propagated and antiviral assays were performed in H1-HeLa cells (ATCC). Cells were grown in minimal essential medium with 10% fetal bovine serum (Life Technologies, Gaithersburg, Md.). The ability of the compounds of this invention to protect cells against either CAV-21 or CVB3 infection was measured by the XTT dye reduction method. This method is described in Weislow et al., J. Natl. Cancer Inst. […] H1-HeLa cells were infected with CAV-21 or CVB3 at a multiplicity of infection (m.o.i.) of 0.025 or 0.075, respectively, or mock-infected with medium only. H1-HeLa cells were plated at 4×10^4 cells per well in a 96-well plate and incubated with appropriate concentrations of the test compound. One day (CVB3) or two days (CAV-21) later, XTT/PMS was added to test plates and the amount of formazan produced was quantified spectrophotometrically at 450/650 nm. […] The therapeutic index (TI) was calculated by dividing the CC50 by the EC50.

[1] = biological target: T1, Recombinant rhinovirus 3C protease, serotype 14 (Human rhinovirus 14, UniProt P03303); assay: Inhibition of rhinovirus 3C protease (FRET assay, kobs/[I]), serotype 14; type: biochemical; conditions: for kinact/KI: pH 7.6, read-out: kobs/[I] (3C protease inhibition activity)
T1 construct: Recombinant rhinovirus 3C proteases; made in house
Experimental: Inhibition of Rhinovirus 3C Protease:
Stock solutions (50 mM, in DMSO) of various compounds were prepared; dilutions were in the same solvent. Recombinant rhinovirus 3C proteases (see Birch et al., “Purification of recombinant human rhinovirus 14 3C protease expressed in Escherichia coli,” Protein Expr. Pur. (1995), vol. 6(5), 609-618) from serotypes 14, 16, and 2 were prepared by the following standard chromatographic procedures: (1) ion exchange using Q Sepharose Fast Flow from Pharmacia; (2) affinity chromatography using Affi-Gel Blue from Biorad; and (3) sizing using Sephadex G-100 from Pharmacia. Each assay sample contained 2% DMSO, 50 mM tris pH 7.6, 1 mM EDTA, a test compound at the indicated concentration, approximately 1 μM substrate, and 50-100 nM protease. The kobs/I values were obtained from reactions initiated by addition of enzyme rather than substrate. RVP activity was measured in the fluorescence resonance energy transfer assay. The substrate was (N-terminal) DABCYL-([…]-EDANS. In the uncleaved peptide, the EDANS fluorescence was quenched by the proximal DABCYL moiety. When the peptide was cleaved, the quenching was relieved, and activity was measured as an increase in fluorescence signal. The tabulated data in the column designated kobs/[I] were measured from progress curves in enzyme start experiments.

[2] = tested on: strains of human rhinovirus (HRV); assay: Antirhinoviral H1-HeLa cell culture assay (XTT cell protection, EC50), other HRV strains; type: cell-based, human rhinovirus in H1-HeLa cells; conditions: read-out: EC50
Experimental: as §1
In this cell protection assay, the ability of compounds to protect cells against HRV infection was measured by the XTT dye reduction method, which is described in Weislow et al., J. Natl. Cancer Inst. (1989), vol. 81, 577-586. H1-HeLa cells were infected with HRV-14 at a multiplicity of infection (m.o.i.) of 0.13 (virus particles/cell) or mock-infected with medium only. Infected or mock-infected cells were resuspended at 8×10^5 cells per mL, and incubated with appropriate concentrations of the compounds to be tested. Two days later, XTT/PMS was added to test plates and the amount of formazan produced was quantified spectrophotometrically at 450/650 nm. […] The therapeutic index (TI) was calculated by dividing the CC50 value by the EC50 value.
as §3

[3] = Cytotoxicity (CC50) in mock-infected H1-HeLa cells, XTT dye reduction; type: cell-based, human; conditions: human, H1-HeLa cells, mock-infected; line of HRV-14
Experimental: as §2, §3, §4

T1 sequence (P03303 1538-1719): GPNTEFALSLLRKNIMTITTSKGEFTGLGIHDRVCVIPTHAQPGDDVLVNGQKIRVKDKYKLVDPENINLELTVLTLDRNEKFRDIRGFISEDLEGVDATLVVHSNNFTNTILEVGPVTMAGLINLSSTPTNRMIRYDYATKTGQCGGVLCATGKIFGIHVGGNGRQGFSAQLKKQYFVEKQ

- kinact/KI ([1]; HRV-14): 8800 M⁻¹ s⁻¹
Structure (SMILES): CCOC(=O)/C=C/[C@H](CCC(N)=O)NC(=O)[C@H](Cc1ccc(F)cc1)n1cccc(NC(=O)C(F)(F)F)c1=O [Compound 24, trans-(2′S,4S)-6-Carbamoyl-4-{3′-(4″-fluorophenyl)-2′-[2′″-oxo-3′″-(2″″,2″″,2″″-trifluoroacetylamino)-2′″H-pyridin-1′″-yl]propionylamino}hex-2-enoic Acid Ethyl Ester]

- EC50 (HRV-14; Rhinovirus B, HRV14, H1-HeLa, HRV-14, read-out: EC50): 16800 nM
Structure (SMILES): Cc1cc(C(=O)Nc2ccc3n(c2=O)[C@H](C(=O)N[C@H](/C=C2\CCOC2=O)C[C@@H]2CCNC2=O)CC3)no1 [Compound 38, trans-(2″S,3S,3′″S)-6-[(5′-Methylisoxazole-3′-carbonyl)amino]-5-oxo-1,2,3,5-tetrahydroindolizine-3-carboxylic Acid [2″-(2′″-oxodihydrofuran-3′″-ylidene)-1″-(2″″-oxopyrrolidin-3″″-ylmethyl)ethyl]amide]
- CC50 at 2 days [3]: > 100000 nM

- kinact/KI ([1]; HRV-14): 673 M⁻¹ s⁻¹
Structure (SMILES): CCOC(=O)/C=C/[C@H](C[C@@H]1CCNC1=O)NC(=O)[C@H](Cc1ccccc1)N1CCc2c(C)c[nH]c2C1=O [Compound 45, 4S-[2S-(3-Methyl-7-oxo-1,4,5,7-tetrahydro-pyrrolo[2,3-c]pyridin-6-yl)3-phenyl-propionylamino]-5-(2-oxo-pyrrolidin-3-yl)pent-2(trans)-enoic acid ethyl ester]

- kinact/KI ([1]; HRV-14 3C protease): 15000 M⁻¹ s⁻¹
Structure (SMILES): CC[C@@H](C(=O)N[C@H](/C=C/C(=O)OC1CCCCCC1)C[C@@H]1CCNC1=O)n1cccc(NC(=O)c2cc(C)on2)c1=O [Compound 61, trans-(2′S,3′″″S,4S)-4-[2′-(3″-{[1′″-(5″″-Methylisoxazol-3″″-yl)methanoyl]amino}-2′″oxo-2′″H-pyridin-1′″-yl)butanoylamino]-5-(2′″″-oxopyrrolidin-3′″″-yl)pent-2-enoic Acid Cycloheptyl Ester]

- kinact/KI ([1]; HRV-14 3C protease): 39500 M⁻¹ s⁻¹
Structure (SMILES): CCOC(=O)/C=C/[C@H](C[C@@H]1CCNC1=O)NC(=O)[C@H](CC)n1cc(C(F)(F)F)cc(NC(=O)c2cc(C)on2)c1=O [Compound 68, trans-(2′S,3″″S,4S)-4-[2′-({[1″-(5′″-Methylisoxazol-3′″-yl)methanoyl]amino}-oxotrifluoromethyl-2″H-pyridin-1″-yl)butanoylamino]-5-(2″″-oxopyrrolidin-3″″-yl)pent-2-enoic Acid Ethyl Ester]

Second part, the compound before the results:

Structure (SMILES): C#CC[C@@H](C(=O)N[C@H](/C=C/C(=O)OCC(C)(C)C)C[C@@H]1CCNC1=O)n1cccc(NC(=O)c2cc(C)on2)c1=O (relative stereo) [Compound 32, trans-(2′S,3″″S,4S)-4-(2′-{3″-[(5′″-Methylisoxazole-3′″-carbonyl)amino]-2″-oxo-2″H-pyridin-1″-yl}-pent-4′-ynoylamino)-5-(2″″-oxopyrrolidin-3″″-yl)pent-2-enoic acid 2,2-Dimethylpropyl Ester]
- EC50 (HRV-14; HRV-14, read-out: EC50): 126 nM
- CC50 (H1-HeLa cells; line of HRV-1A): > 10000 nM
- CC50 (H1-HeLa cells; line of HRV-2): > 10000 nM
- CC50 (H1-HeLa cells; line of HRV-3): > 10000 nM
- CC50 (H1-HeLa cells; line of HRV-9): > 10000 nM
- CC50 (H1-HeLa cells; line of HRV-10): > 10000 nM
- CC50 (H1-HeLa cells; line of HRV-14): > 10000 nM
- CC50 (H1-HeLa cells; line of HRV-16): > 10000 nM
- CC50 (H1-HeLa cells; line of HRV-25): > 10000 nM
- CC50 (H1-HeLa cells; line of HRV-39): > 10000 nM
- CC50 (H1-HeLa cells; line of HRV-87): > 10000 nM
- kobs/[I] (3C protease inhibition activity) ([1]; HRV-14): 127,500 M^−1s^−1
- EC50 ([2]; HRV-1A): 179 nM
- EC50 ([2]; HRV-2): 105 nM
- EC50 ([2]; HRV-3): 59 nM
- EC50 ([2]; HRV-9): 500 nM
- EC50 ([2]; HRV-10): 156 nM
- EC50 ([2]; HRV-16): 184 nM
- EC50 ([2]; HRV-25): 547 nM
- EC50 ([2]; HRV-39): 410 nM
- EC50 ([2]; HRV-87): 33 nM

Structure (SMILES): CCC(C(=O)N[C@H](/C=C/C(=O)OCC(C)(C)C)C[C@@H]1CCNC1=O)n1cccc(NC(=O)c2cc(C)on2)c1=O (relative stereo) [Compound 42, trans-(2′S,3′″″S,4S)-4-[2′-(3″-{[1′″-(5″″-Methylisoxazol-3″″-yl)methanoyl]amino}-2′″-oxo-2′″H-pyridin-1′″-yl)butanoylamino]-5-(2′″″-oxopyrrolidin-3′″″-yl)pent-2-enoic Acid 2,2-Dimethylpropyl Ester]
- EC50 (HRV-14; HRV-14, read-out: EC50): 168 nM
- CC50 (H1-HeLa cells; line of HRV-2): > 10000 nM
- CC50 (H1-HeLa cells; line of HRV-3): > 10000 nM
- CC50 (H1-HeLa cells; line of HRV-9): > 10000 nM
- CC50 (H1-HeLa cells; line of HRV-14): > 10000 nM
- CC50 (H1-HeLa cells; line of HRV-16): > 10000 nM
- CC50 (H1-HeLa cells; line of HRV-25): > 10000 nM
- CC50 (H1-HeLa cells; line of HRV-39): > 10000 nM
- kobs/[I] (3C protease inhibition activity) ([1]; HRV-14): 38,200 M^−1s^−1
- EC50 ([2]; HRV-2): 161 nM
- EC50 ([2]; HRV-3): 152 nM
- EC50 ([2]; HRV-9): 521 nM
- EC50 ([2]; HRV-16): 402 nM
- EC50 ([2]; HRV-25): 611 nM
- EC50 ([2]; HRV-39): 158 nM

Structure (SMILES): CCOC(=O)/C=C/[C@H](C[C@@H]1CCNC1=O)NC(=O)[C@@H](Cc1ccccc1)n1ccc2cc[nH]c2c1=O [Compound 4]
- kinact/KI ([1]; HRV-14): 574 M⁻¹ s⁻¹

Structure (SMILES): Cc1cc(C(=O)Nc2cccn([C@@H](Cc3ccc(F)c(F)c3)C(=O)N[C@H](/C=C/C(=O)O)C[C@@H]3CCNC3=O)c2=O)no1 [Compound 51, trans-(2′S,3″″″S,4S)-4-[3′-(3″,4″-Difluorophenyl)-2′-(3′″-{[1″″-(5′″″-methylisoxazol-3′″″-yl)methanoyl]amino}-2″″-oxo-2″″H-pyridin-1″″-yl)propanoylamino]-5-(2″″″-oxopyrrolidin-3″″″-yl)pent-2-enoic Acid]
- EC50 (HRV-14; Rhinovirus B, HRV14, H1-HeLa): > 10000 nM
- CC50 (H1-HeLa cells; line of HRV-9): > 10000 nM
- CC50 (H1-HeLa cells; line of HRV-16): > 10000 nM
- CC50 (H1-HeLa cells; line of HRV-25): > 10000 nM
- CC50 at 2 days [3]: > 10000 nM
- EC50 ([2]; Human rhinovirus sp., HRV9, H1-HeLa, HRV-9): > 1000 nM
- EC50 ([2]; Human rhinovirus sp., HRV16, H1-HeLa, HRV-16): > 10000 nM
- EC50 ([2]; Human rhinovirus sp., HRV25, H1-HeLa, HRV-25): > 10000 nM

Structure (SMILES): Cc1cc(CCCCCCCOc2ccc(C3=NCCO3)cc2)on1 [WIN 51711, reference compound]
- EC50 (HRV-14; HRV-14, read-out: EC50): 780 nM
- CC50 (H1-HeLa cells; HRV-14): > 60000 nM

Structure (SMILES): Cc1cc(CCCCCCCOc2ccc(C3=N[C@@H](C)CO3)cc2)on1 [WIN 52084, reference compound]
- EC50 (HRV-14; HRV-14, read-out: EC50): 70 nM
- CC50 (H1-HeLa cells; HRV-14): > 10000 nM
